# Columns and labels:
# Enterobacter = assay: Minimum inhibitory concentration required for antibacterial activity against Enterobacter; type: functional
# Micrococcus luteus = assay: Minimum inhibitory concentration required for antibacterial activity against Sarcina luteus; type: functional, sarcinea luteus
# Escherichia coli = assay: Minimum inhibitory concentration required for antibacterial activity against Escherichia coli; type: functional
# Salmonella = assay: Minimum inhibitory concentration required for antibacterial activity against Salmonella; type: functional
# Providencia = assay: Minimum inhibitory concentration required for antibacterial activity against Providencia; type: functional
# [1] = Gram-negative geometric mean MIC of antibacterial activity; type: functional
# [2] = Gram-positive geometric mean MIC of antibacterial activity; type: functional
# Enterococcus faecalis = assay: Minimum inhibitory required for antibacterial activity against Streptococcus faecalis; type: functional
# Bacillus subtilis = assay: Minimum inhibitory concentration required for antibacterial activity against Bacillus subtilis; type: functional
# Staphylococcus = assay: Minimum inhibitory concentration required for antibacterial activity against Staphylococcus; type: functional
# Serratia [3] = assay: Minimum inhibitory concentration required for antibacterial activity against Serratia; type: functional
# Klebsiella = assay: Minimum inhibitory concentration required for antibacterial activity against Klebsiella; type: functional
# Morganella = assay: Minimum inhibitory concentration required for antibacterial activity against Morganella; type: functional
# [4] = Gram-positive geometric mean MIC for antibacterial activity (ug/mL); type: functional
# Serratia [5] = assay: Minimum inhibitory concentration for antibacterial activity against Serratia; type: functional
# [6] = Gram-positive vitro for its antibacterial activity of Geometric Mean MIC (ug/mL); type: functional
SMILES,MIC (Enterobacter),MIC (Micrococcus luteus),MIC (Escherichia coli),MIC (Salmonella),MIC (Providencia),MIC [1],MIC [2],MIC (Enterococcus faecalis),MIC (Bacillus subtilis),MIC (Staphylococcus),MIC (Serratia [3]),MIC (Klebsiella),MIC (Morganella),MIC [4],MIC (Serratia [5]),MIC [6]
C[C@@H](O)[C@H]1C(=O)N2C(C(=O)O)=C(SC[C@@H](N)C(=O)O)S[C@H]12,0.76 µg/mL,4 µg/mL,0.25 µg/mL,0.16 µg/mL,5.66 µg/mL,0.49 µg/mL,3.01 µg/mL,45.2 µg/mL,0.5 µg/mL,1.82 µg/mL,1.08 µg/mL,0.17 µg/mL,–,–,–,–
C[C@@H](O)[C@H]1C(=O)N2C(C(=O)O)=C(CSC[C@H](N)C(=O)O)S[C@H]12,10.1 µg/mL,0.5 µg/mL,4 µg/mL,3.18 µg/mL,13.9 µg/mL,6.4 µg/mL,–,22.6 µg/mL,0.5 µg/mL,0.707 µg/mL,–,4.93 µg/mL,8 µg/mL,0.94 µg/mL,19 µg/mL,–
CSCC[C@H](N)C1=C(C(=O)O)N2C(=O)[C@H]([C@@H](C)O)[C@H]2S1,20.2 µg/mL,0.031 µg/mL,11.7 µg/mL,10.1 µg/mL,55.7 µg/mL,17.6 µg/mL,–,64 µg/mL,4 µg/mL,0.214 µg/mL,38.1 µg/mL,12.1 µg/mL,64.1 µg/mL,0.37 µg/mL,–,–
C[C@H](N)C1=C(C(=O)O)N2C(=O)[C@H]([C@@H](C)O)[C@H]2S1,20.2 µg/mL,0.5 µg/mL,21.9 µg/mL,10.1 µg/mL,64 µg/mL,24.6 µg/mL,–,64 µg/mL,1 µg/mL,0.26 µg/mL,45.3 µg/mL,17.1 µg/mL,64 µg/mL,0.47 µg/mL,–,–
CSC[C@@H](N)C1=C(C(=O)O)N2C(=O)[C@H]([C@@H](C)O)[C@H]2S1,2 µg/mL,2 µg/mL,0.707 µg/mL,0.794 µg/mL,9.19 µg/mL,1.33 µg/mL,–,16 µg/mL,0.125 µg/mL,0.099 µg/mL,2.83 µg/mL,0.595 µg/mL,2 µg/mL,0.18 µg/mL,–,–
C[C@@H](O)[C@H]1C(=O)N2C(C(=O)O)=C(CC[C@@H](N)C(=O)O)S[C@H]12,2.52 µg/mL,4 µg/mL,2.42 µg/mL,1 µg/mL,18.4 µg/mL,4 µg/mL,–,45.3 µg/mL,1.01 µg/mL,2.08 µg/mL,16 µg/mL,2.83 µg/mL,16 µg/mL,2.7 µg/mL,–,–
C[C@@H](O)[C@H]1C(=O)N2C(C(=O)O)=C(CN)S[C@H]12,8 µg/mL,0.5 µg/mL,5.15 µg/mL,3.18 µg/mL,8 µg/mL,6.27 µg/mL,–,32 µg/mL,0.5 µg/mL,0.153 µg/mL,–,6.06 µg/mL,4 µg/mL,0.28 µg/mL,13.4 µg/mL,–
CSC[C@H](N)C1=C(C(=O)O)N2C(=O)[C@H]([C@@H](C)O)[C@H]2S1,20.2 µg/mL,0.25 µg/mL,12.4 µg/mL,5.04 µg/mL,97 µg/mL,16.3 µg/mL,–,90.5 µg/mL,0.5 µg/mL,0.26 µg/mL,22.6 µg/mL,8.57 µg/mL,128 µg/mL,–,–,0.45 µg/mL
C[C@@H](O)[C@H]1C(=O)N2C(C(=O)O)=C(CC[C@H](N)C(=O)O)S[C@H]12,16 µg/mL,8 µg/mL,9.67 µg/mL,11.3 µg/mL,55.7 µg/mL,17.3 µg/mL,–,90.5 µg/mL,2 µg/mL,2.33 µg/mL,45.3 µg/mL,12.1 µg/mL,64 µg/mL,3.4 µg/mL,–,–
C[C@@H](O)[C@H]1C(=O)N2C(C(=O)O)=C(SC[C@H](N)C(=O)O)S[C@H]12,16 µg/mL,4 µg/mL,6.46 µg/mL,5.28 µg/mL,42.7 µg/mL,16 µg/mL,–,128 µg/mL,2.83 µg/mL,1.94 µg/mL,17.3 µg/mL,4 µg/mL,–,4 µg/mL,–,–

# The remaining lines, values ahead:
MIC (Enterobacter),MIC (Micrococcus luteus),MIC (Escherichia coli),MIC (Salmonella),MIC (Providencia),MIC [1],MIC [2],MIC (Enterococcus faecalis),MIC (Bacillus subtilis),MIC (Staphylococcus),MIC (Serratia [3]),MIC (Klebsiella),MIC (Morganella),MIC [4],MIC (Serratia [5]),MIC [6],SMILES
1 µg/mL,0.125 µg/mL,0.441 µg/mL,0.397 µg/mL,5.28 µg/mL,0.13 µg/mL,–,8.02 µg/mL,0.125 µg/mL,0.07 µg/mL,2.83 µg/mL,0.5 µg/mL,4 µg/mL,0.88 µg/mL,–,–,CSCC[C@@H](N)C1=C(C(=O)O)N2C(=O)[C@H]([C@@H](C)O)[C@H]2S1
0.63 µg/mL,0.5 µg/mL,0.284 µg/mL,0.25 µg/mL,2 µg/mL,0.51 µg/mL,–,16 µg/mL,0.25 µg/mL,0.852 µg/mL,–,0.308 µg/mL,2 µg/mL,1.1 µg/mL,1.68 µg/mL,–,C[C@@H](O)[C@H]1C(=O)N2C(C(=O)O)=C(CSC[C@@H](N)C(=O)O)S[C@H]12
6.35 µg/mL,2 µg/mL,3.11 µg/mL,4 µg/mL,16 µg/mL,5.4 µg/mL,–,16 µg/mL,0.25 µg/mL,0.735 µg/mL,13.4 µg/mL,3.73 µg/mL,16 µg/mL,1 µg/mL,–,–,C[C@@H](O)[C@H]1C(=O)N2C(C(=O)O)=C([C@H](N)CCC(=O)O)S[C@H]12
10.1 µg/mL,–,11.7 µg/mL,5.04 µg/mL,55.7 µg/mL,14.3 µg/mL,–,–,–,0.229 µg/mL,26.9 µg/mL,9.85 µg/mL,32 µg/mL,0.29 µg/mL,–,–,C[C@@H](N)C1=C(C(=O)O)N2C(=O)[C@H]([C@@H](C)O)[C@H]2S1
3.2 µg/mL,–,0.68 µg/mL,0.5 µg/mL,2.3 µg/mL,1.2 µg/mL,–,5.7 µg/mL,0.06 µg/mL,0.12 µg/mL,–,0.81 µg/mL,2 µg/mL,0.16 µg/mL,5.7 µg/mL,–,C[C@@H](O)[C@H]1C(=O)N2C(C(=O)O)=C(COC(N)=O)S[C@H]12 [RITIPENEM]
1.3 µg/mL,–,0.3 µg/mL,0.25 µg/mL,0.87 µg/mL,0.57 µg/mL,–,5.7 µg/mL,0.06 µg/mL,0.11 µg/mL,–,0.35 µg/mL,2 µg/mL,0.15 µg/mL,4.8 µg/mL,–,C[C@@H](O)[C@H]1C(=O)N2C(C(=O)O)=C(SCCOC(N)=O)S[C@H]12 [Sch-34343]

# From ChEMBL document CHEMBL1127131, “Penems containing amino acid derived substituents at C-2” (1993)
